Measurements reported in ChEMBL document CHEMBL4334512, “Rationally Designed, Conformationally Constrained Inverse Agonists of RORγt-Identification of a Potent, Selective Series with Biologic-Like in Vivo Efficacy” (J Med Chem, 2019).

Assays:
[1] = Unbound fraction in human serum; type: ADME, cell-free
[2] = target: T1, Nuclear receptor subfamily 1 group I member 2 (Homo sapiens, UniProt O75469); experiment: Activity at PXR (unknown origin)
T1 sequence (O75469 whole entry): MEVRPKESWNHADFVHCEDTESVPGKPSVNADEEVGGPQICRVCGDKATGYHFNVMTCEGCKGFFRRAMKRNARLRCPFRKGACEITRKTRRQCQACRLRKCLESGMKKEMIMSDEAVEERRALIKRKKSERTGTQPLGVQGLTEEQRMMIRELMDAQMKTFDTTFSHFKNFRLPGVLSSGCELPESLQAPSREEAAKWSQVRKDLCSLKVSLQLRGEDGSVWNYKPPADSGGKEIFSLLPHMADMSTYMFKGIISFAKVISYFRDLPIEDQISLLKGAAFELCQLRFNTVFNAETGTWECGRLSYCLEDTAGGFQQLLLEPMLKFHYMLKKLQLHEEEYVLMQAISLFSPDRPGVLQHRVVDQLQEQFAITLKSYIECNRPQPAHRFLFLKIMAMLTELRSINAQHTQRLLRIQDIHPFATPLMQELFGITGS

[3] = target: T2, Nuclear receptor ROR-alpha (Homo sapiens, UniProt P35398); experiment: Activity at RORalpha (unknown origin)
T2 sequence (P35398 whole entry): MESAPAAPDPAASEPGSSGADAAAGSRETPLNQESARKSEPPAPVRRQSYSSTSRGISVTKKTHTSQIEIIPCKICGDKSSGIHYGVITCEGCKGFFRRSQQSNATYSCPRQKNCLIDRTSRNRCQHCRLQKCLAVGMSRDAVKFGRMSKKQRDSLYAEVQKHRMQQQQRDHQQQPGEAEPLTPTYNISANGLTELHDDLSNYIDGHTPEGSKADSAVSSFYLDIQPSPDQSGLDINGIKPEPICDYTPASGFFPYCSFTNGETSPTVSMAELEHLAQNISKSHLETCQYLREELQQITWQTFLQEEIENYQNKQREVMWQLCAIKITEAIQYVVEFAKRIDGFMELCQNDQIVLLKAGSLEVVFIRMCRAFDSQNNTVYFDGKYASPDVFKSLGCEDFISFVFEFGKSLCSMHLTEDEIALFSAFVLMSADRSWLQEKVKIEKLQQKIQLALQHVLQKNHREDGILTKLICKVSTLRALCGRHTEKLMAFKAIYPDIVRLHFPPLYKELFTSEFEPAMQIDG

[4] = target: T2, Nuclear receptor ROR-alpha; experiment: Agonist activity at RORalpha (unknown origin) by Gal4-Luc reporter gene assay
[5] = target: T3, Nuclear receptor ROR-gamma (Mus musculus, UniProt P51450); experiment: Inverse agonist activity at RORgammat in mouse cells by mTh17 assay; type: cell-based
T3 sequence (P51450 whole entry): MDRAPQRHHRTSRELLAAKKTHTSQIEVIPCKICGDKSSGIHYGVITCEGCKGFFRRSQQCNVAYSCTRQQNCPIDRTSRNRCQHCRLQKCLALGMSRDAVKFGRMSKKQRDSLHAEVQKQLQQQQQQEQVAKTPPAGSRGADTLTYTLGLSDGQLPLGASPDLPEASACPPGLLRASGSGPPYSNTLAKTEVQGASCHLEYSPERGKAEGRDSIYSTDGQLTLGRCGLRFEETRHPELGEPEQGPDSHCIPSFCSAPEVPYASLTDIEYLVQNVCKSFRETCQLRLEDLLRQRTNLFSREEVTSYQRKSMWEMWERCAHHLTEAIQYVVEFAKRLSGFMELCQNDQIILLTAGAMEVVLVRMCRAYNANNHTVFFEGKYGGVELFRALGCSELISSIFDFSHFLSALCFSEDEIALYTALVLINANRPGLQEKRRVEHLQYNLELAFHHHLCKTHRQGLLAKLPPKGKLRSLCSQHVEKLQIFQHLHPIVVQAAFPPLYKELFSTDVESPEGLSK

[6] = target: T3, Nuclear receptor ROR-gamma; experiment: Inverse agonist activity at RORgammat in CD3/CD28/IL-1/IL-23-stimulated C57/B6 mouse whole blood assessed as reduction in IL17A production incubated for 1 hr before stimulation with CD3/CD28/IL-1/IL-23 for 24 hrs by AlphaLISA method; type: tissue-based
[7] = target: T1, Nuclear receptor subfamily 1 group I member 2; experiment: Agonist activity at PXR (unknown origin) by Gal4-Luc reporter gene assay)
Cytochrome P450 3A4 = Cytochrome P450 3A4 (Homo sapiens, UniProt P08684); experiment: Inhibition of recombinant CYP3A4 (unknown origin) using BFC substrate; type: ADME
Mus musculus [8] = experiment: Suppression of IL-17F RNA expression in skin region of mouse model of IL-23 induced acanthosis model of psoriasis at 3 to 30 mg/kg, po BID for 10 days measured every other day; type: functional
[9] = Total AUC in dog at 1 mg/kg, po; type: ADME, organism-based, Canis lupus familiaris; design: dose 1 mg/kg, route oral, time AUCmax; conditions: in vivo
[10] = Volume of distribution at steady state in rat at 2 mg/kg, iv; type: ADME, organism-based; conditions: in vivo, read-out: Vdss
[11] = Volume of distribution at steady state in dog at 1 mg/kg, iv; type: ADME, organism-based, Canis lupus familiaris; conditions: in vivo, read-out: Vdss
[12] = Oral bioavailability in rat at 4 mg/kg; type: ADME, organism-based; conditions: in vivo
[13] = Oral bioavailability in dog at 1 mg/kg; type: ADME, organism-based, Canis lupus familiaris; conditions: in vivo
Mus musculus [14] = experiment: Suppression of ear thickness in mouse model of IL-23 induced acanthosis model of psoriasis at 30 mg/kg, po BID for 10 days measured every other day relative to control; type: functional; conditions: 240 h
Mus musculus [15] = experiment: Suppression of ear thickness in mouse model of IL-23 induced acanthosis model of psoriasis at 3 mg/kg, po BID for 10 days measured every other day relative to anti-IL-23 positive control; type: functional
Mus musculus [16] = experiment: Suppression of IL-22 RNA expression in skin region of mouse model of IL-23 induced acanthosis model of psoriasis at 3 mg/kg, po BID for 10 days measured every other day relative to control; type: functional; conditions: 240 h
Mus musculus [17] = experiment: Suppression of IL-22 RNA expression in skin region of mouse model of IL-23 induced acanthosis model of psoriasis at 10 mg/kg, po BID for 10 days measured every other day relative to control; type: functional; conditions: 240 h
Mus musculus [18] = experiment: Suppression of IL-22 RNA expression in skin region of mouse model of IL-23 induced acanthosis model of psoriasis at 30 mg/kg, po BID for 10 days measured every other day relative to control; type: functional; conditions: 240 h

Cytochrome P450 3A4, sequence (P08684 whole entry): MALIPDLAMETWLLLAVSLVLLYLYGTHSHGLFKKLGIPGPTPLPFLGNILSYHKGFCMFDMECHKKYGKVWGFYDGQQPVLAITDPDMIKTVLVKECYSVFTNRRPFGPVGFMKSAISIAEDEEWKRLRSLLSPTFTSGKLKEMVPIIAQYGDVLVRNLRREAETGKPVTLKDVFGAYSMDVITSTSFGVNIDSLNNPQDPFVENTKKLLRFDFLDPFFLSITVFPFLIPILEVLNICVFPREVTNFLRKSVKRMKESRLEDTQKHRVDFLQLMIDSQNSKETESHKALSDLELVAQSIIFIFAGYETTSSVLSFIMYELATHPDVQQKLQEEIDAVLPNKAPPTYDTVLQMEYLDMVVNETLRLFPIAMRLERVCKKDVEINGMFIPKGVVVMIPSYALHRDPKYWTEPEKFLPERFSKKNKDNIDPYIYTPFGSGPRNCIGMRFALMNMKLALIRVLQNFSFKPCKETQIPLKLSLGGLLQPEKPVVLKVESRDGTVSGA

fraction unbound [1]: 0.011
IC50 [2]: > 40 µM
IC50 [3]: > 10 µM
EC50 [4]: > 10 µM
EC50 [5]: 0.013 µM
EC50 [6]: 0.44 µM
EC50 [7]: > 50 µM
IC50 (Cytochrome P450 3A4): > 20 µM
AUC [9]: 78 µM·h
Vd [10]: 2.9 L/kg
Vd [11]: 2.6 L/kg
bioavailability [12]: 50%
bioavailability [13]: 100%
Compound: O=C(N1CC[C@@]2(S(=O)(=O)c3ccc(F)cc3)c3ccc(C(F)(C(F)(F)F)C(F)(F)F)cc3CC[C@@H]12)C1(O)CCS(=O)(=O)CC1
Activity (Mus musculus [8]): Dose-dependent effect
ED50 (Mus musculus [8]; 240 h): 3 mg/kg
inhibition in vivo at 30 mg/kg (Mus musculus [14]): 57%
Efficacy (Mus musculus [15]): 48%
inhibition in vivo at 3 mg/kg (Mus musculus [16]): 76%
inhibition in vivo at 10 mg/kg (Mus musculus [17]): 92%
inhibition in vivo at 30 mg/kg (Mus musculus [18]): 97%
